Assay results: US20090286720A1, “PHARMACEUTICAL COMPOSITION FOR THE DIAGNOSIS, PREVENTION OR TREATMENT OF A TUMORAL PATHOLOGY COMPRISING AN AGENT MODULATING THE POLYMERIZATION STATE OF ACTIN” (priority 2001, published 2009)
Starred links: 1 amine or outer side, 2 acyl side, 3 side chain; linkers in the order of their positions; H or OH if unused. Non-standard residues stand in square brackets, D forms with d. Residues, ends and D or L forms follow the SMILES beside them. X1 = CC[C@H](C)[C@H](OC(=O)[C@@H](C)[C@@H](CC)N[*:1])C(=O)[*:2]; X2 = C[C@H](N[*:1])C(=O)C(C)(C)C(=O)[*:2]; NMeY = CN[C@@H](Cc1ccc(O)cc1)C(=O)O; NMeL = CN[C@@H](CC(C)C)C(=O)O; NMeV = CN[C@H](C(=O)O)C(C)C

Columns and labels:
actin = test: In vitro measurement of actin polymerization by fluorescence anisotropy in EWS-Fli cell extracts; format: biochemical; conditions: dolastatin 11 added in the polymerization buffer of EWS-Fli cell extracts; deficit versus NIH3T3 extracts; FIG. 11
Method: Cell extracts of NIH3T3 cells or EWS-Fli cells were brought into the presence of actin Alexa 488 in a buffer G ([…] pH 8.1; 170 μM CaCl2; 170 μM DTT; 170 μM ATP). The polymerization reaction was triggered by addition of a buffer P (KCl 51 mM, MgCl2 1 mM and ATP 0.5 mM). Dolastatin (μM) was added to the cell extracts of the EWS-Fli cells at the same time as the buffer P. Polymerization of actin was monitored by fluorescence anisotropy on a Beacon 2000. The results obtained are illustrated in FIG. 11.

EWS-Fli cells [1] = test: Morphological modification of EWS-Fli cells (actin filaments stained with phalloidin-FITC); format: cell-based, murine; conditions: FIG. 12
Method: The cells (5×10^3) were cultured on glass slides 10 mm in diameter and kept in culture for 24 hours. After fixation (3% paraformaldehyde) and permeabilization (0.2% TritonX100), the actin filaments of the cells were immunostained by phalloidin coupled to FITC. Untreated NIH3T3; NIH3T3 transfected by EWS-Fli (EF); EF incubated in the presence of 10 μM or 100 μM of jasplakinolide; EF incubated with 10 μM or 20 μM of D11 (FIG. 12).

NIH3T3 cells [2] = test: Morphological modification of NIH3T3 cells (actin filaments stained with phalloidin-FITC); format: cell-based, murine; conditions: same concentrations (10 or 20 nM); FIG. 12
Method: The cells (5×10^3) were cultured on glass slides 10 mm in diameter and kept in culture for 24 hours. After fixation (3% paraformaldehyde) and permeabilization (0.2% TritonX100), the actin filaments of the cells were immunostained by phalloidin coupled to FITC. […]

NIH3T3 cells [3] = test: Toxicity of dolastatin-11 by MTT test on NIH3T3 cells; format: cell-based, murine; conditions: low concentrations (10 or 20 nM), FIG. 13
Method: (§1) The cells (10^4 per well) were cultured in 96-well plates in the presence of different concentrations of D11. Monitoring of the toxicity of D11 in relation to time was performed by means of an MTT test on the NIH3T3 cells (A) and the EWS-Fli cells (B). The results are illustrated in FIG. 13.

EWS-Fli cells [4] = test: Toxicity of dolastatin-11 by MTT test on EWS-Fli cells; format: cell-based, murine; conditions: low concentrations (10 or 20 nM), FIG. 13
Method: as §1

EWS-Fli cells [5] = test: Development of tumors in the nude mouse after subcutaneous injection of EWS-Fli cells; format: in vivo; conditions: nude mice, 10 μg/kg intravenous on 5th, 8th and 11th days after EWS-Fli cell injection, measured on 28th day; FIG. 14
Method: Twenty-four hours after irradiation (5 Gy) of the mice, the EWS-Fli cells (10^6) were inoculated via the subcutaneous route. The mice were then separated into two lots, with the first lot corresponding to the untreated mice and the second lot to the mice having received three injections of dolastatin 11 via the intravenous route (10 μg/kg) on the 5th, 8th and 11th days after injection of the EWS-Fli cells. […]

[6] = Survival of the mice (tolerated dose); conditions: intravenous

Row | Structure (SMILES) | capacity of cell extracts to polymerize actin (fluorescence anisotropy) (actin) | effect on the cytoskeleton (EWS-Fli cells [1]; EWS-Fli cells incubated with 10 μM or 20 μM of D11) | contact structures between the cells (EWS-Fli cells [1]; EWS-Fli cells, 10 or 20 nM) | stress fibers and morphology of the cells (EWS-Fli cells [1]; EWS-Fli cells, 10 or 20 nM) | morphology of NIH3T3 cells (NIH3T3 cells [2]) | cytotoxicity or cytostaticity (MTT test) (NIH3T3 cells [3]) | cytotoxicity or cytostaticity (MTT test) (EWS-Fli cells [4]) | development of tumors (EWS-Fli cells [5]) | dose used (10 μg/kg) relative to the dose not affecting survival of the mice [6] | effect on the cytoskeleton (EWS-Fli cells [1]; EWS-Fli cells incubated with 10 μM or 100 μM of jasplakinolide)
1 | CC[C@H](C)[C@@H]1OC(=O)[C@@H](C)[C@@H](CC)NC(=O)[C@H](C)NC(=O)C(C)(C)C(=O)[C@H](C)NC(=O)[C@H](Cc2ccc(OC)cc2)N(C)C(=O)[C@H](C(C)C)N(C)C(=O)CNC(=O)[C@H](CC(C)C)N(C)C(=O)CNC1=O [dolastatin 11] (cyclo(A[X1]G[NMeL]G[NMeV][NMeY](Me)[X2])) | can compensate in part for this deficit | effect | reestablished the contact structures between the cells | restored the stress fibers of the cells with a morphology close to that of NIH3T3 cells | did not modify in the least | no cytotoxicity or cytostaticity effects were observed | no cytotoxicity or cytostaticity effects were observed | markedly delayed | five times weaker than the dose not affecting survival of the mice | 
2 | C/C1=C\[C@H](C)C[C@H](C)OC(=O)C[C@H](c2ccc(O)cc2)NC(=O)[C@@H](Cc2c(Br)[nH]c3ccccc23)N(C)C(=O)[C@H](C)NC(=O)[C@@H](C)C1 [jasplakinolide] |  |  |  |  |  |  |  |  |  | effect
